Test results as given in patent US12565476B2, “2,5-disubstituted 3-methyl pyrazines and 2,5,6-trisubstituted 3-methyl pyrazines as allosteric SHP2 inhibitors” (Revolution Medicines, Inc., priority 2016, dated 2026).

Target: SHP2 (Homo sapiens (Human), UniProt Q06124)
Assay: SHP2 allosteric inhibition assay (DiFMUP prompt fluorescence)
Type: biochemical
Details: 0.2 nM SHP2 incubated with 0.5 μM Activating Peptide 1 or 2, surrogate substrate DiFMUP, compound 0.00005-10 μM
From the text: Without wishing to be bound by theory, SHP is allosterically activated through binding of bis-tyrosyl-phosphorylated peptides to its Src Homology 2 (SH2) domains. The latter activation step leads to the release of the auto-inhibitory interface of SHP2, which in turn renders the SHP2 protein tyrosine phosphatase (PTP) active and available for substrate recognition and reaction catalysis. The catalytic activity of SHP2 was monitored using the surrogate substrate DiFMUP in a prompt fluorescence assay format.
After 30-60-minutes incubation at 25° C., the surrogate substrate DiFMUP (Invitrogen, Cat #D6567) was added to the reaction and activity was determined by a kinetic read using a microplate reader (Envision, Perkin-Elmer or Spectramax M5, Molecular Devices). The excitation and emission wavelengths were 340 nm and 450 nm, respectively. Initial rates were determined from a linear fit of the data, and the inhibitor dose response curves were analyzed using normalized IC50 regression curve fitting with control based normalization.

Chain of SHP2 (Q06124 whole entry): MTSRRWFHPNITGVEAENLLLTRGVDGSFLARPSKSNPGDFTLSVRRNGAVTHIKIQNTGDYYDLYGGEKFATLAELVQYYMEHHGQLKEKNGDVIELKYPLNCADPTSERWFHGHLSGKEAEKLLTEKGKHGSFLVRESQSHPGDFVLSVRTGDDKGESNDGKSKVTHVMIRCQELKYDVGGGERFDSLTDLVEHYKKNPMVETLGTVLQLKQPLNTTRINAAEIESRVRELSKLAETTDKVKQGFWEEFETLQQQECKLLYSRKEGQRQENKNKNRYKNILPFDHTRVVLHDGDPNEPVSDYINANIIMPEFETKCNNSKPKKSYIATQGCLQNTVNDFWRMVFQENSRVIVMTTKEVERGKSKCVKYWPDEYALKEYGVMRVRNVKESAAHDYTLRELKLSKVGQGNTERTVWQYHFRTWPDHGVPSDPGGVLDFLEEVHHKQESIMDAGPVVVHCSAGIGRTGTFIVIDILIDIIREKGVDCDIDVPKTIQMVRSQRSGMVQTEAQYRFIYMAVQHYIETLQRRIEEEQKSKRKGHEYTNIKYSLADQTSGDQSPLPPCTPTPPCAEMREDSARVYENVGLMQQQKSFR

SMILES	IC50 [nM]
Cc1nc(N2CCC3(CCC[C@H]3N)CC2)cnc1Sc1cccc(Cl)c1Cl [Example 1, (R)-8-(5-((2,3-dichlorophenyl)thio)-6-methylpyrazin-2-yl)-8-azaspiro[4.5]decan-1-amine]	83
Cc1nc(N2CCC(C)(N)CC2)cnc1-c1cccc(Cl)c1Cl [Example 24, 1-(5-(2,3-dichlorophenyl)-6-methylpyrazin-2-yl)-4-methylpiperidin-4-amine]	104
Cc1nc(N2CCC3(CCC[C@H]3N)CC2)cnc1-c1cccc(Cl)c1Cl [Example 23, (R)-8-(5-(2,3-dichlorophenyl)-6-methylpyrazin-2-yl)-8-azaspiro[4.5]decan-1-amine]	43
